Our source for the transcription activation values is PMC10936776, “Structural and functional characterization of AfsR, an SARP family transcriptional activator of antibiotic biosynthesis in Streptomyces” (PLOS Biology, 2024).

In test [1] the target is T1, AfsR (dephosphorylated AfsR) (Streptomyces coelicolor, UniProt P25941).
T1 construct: full-length, 993 residues, pET28a (His-tagged), E. coli BL21(DE3), Ni-NTA and SEC; wild type treated with lambda phosphatase (E. coli protein carries pT337); mainly monomer
Nature of the test: in vitro MangoIII transcription assay after preincubation. The class given is biochemical. As to conditions: 500 nM dephosphorylated AfsR, 1 mM ATPγS preincubation 10 min 30 °C, RNAP-σHrdB, RbpA, CarD; activator.

The target in test [2] is T2, phosphorylated AfsR (phos-AfsR) (Streptomyces coelicolor, UniProt P25941).
T2 construct: full-length, 993 residues, pET28a (His-tagged), E. coli BL21(DE3); dephosphorylated, then phosphorylated in vitro by AfsKΔC (pS22, pT337, pS391, pT506, pS953 by MS), SEC
The test is described as above. In kind it is biochemical. The settings on record: 500 nM phosphorylated AfsR, 1 mM ATPγS preincubation; activator.

T2 sequence (P25941 whole entry): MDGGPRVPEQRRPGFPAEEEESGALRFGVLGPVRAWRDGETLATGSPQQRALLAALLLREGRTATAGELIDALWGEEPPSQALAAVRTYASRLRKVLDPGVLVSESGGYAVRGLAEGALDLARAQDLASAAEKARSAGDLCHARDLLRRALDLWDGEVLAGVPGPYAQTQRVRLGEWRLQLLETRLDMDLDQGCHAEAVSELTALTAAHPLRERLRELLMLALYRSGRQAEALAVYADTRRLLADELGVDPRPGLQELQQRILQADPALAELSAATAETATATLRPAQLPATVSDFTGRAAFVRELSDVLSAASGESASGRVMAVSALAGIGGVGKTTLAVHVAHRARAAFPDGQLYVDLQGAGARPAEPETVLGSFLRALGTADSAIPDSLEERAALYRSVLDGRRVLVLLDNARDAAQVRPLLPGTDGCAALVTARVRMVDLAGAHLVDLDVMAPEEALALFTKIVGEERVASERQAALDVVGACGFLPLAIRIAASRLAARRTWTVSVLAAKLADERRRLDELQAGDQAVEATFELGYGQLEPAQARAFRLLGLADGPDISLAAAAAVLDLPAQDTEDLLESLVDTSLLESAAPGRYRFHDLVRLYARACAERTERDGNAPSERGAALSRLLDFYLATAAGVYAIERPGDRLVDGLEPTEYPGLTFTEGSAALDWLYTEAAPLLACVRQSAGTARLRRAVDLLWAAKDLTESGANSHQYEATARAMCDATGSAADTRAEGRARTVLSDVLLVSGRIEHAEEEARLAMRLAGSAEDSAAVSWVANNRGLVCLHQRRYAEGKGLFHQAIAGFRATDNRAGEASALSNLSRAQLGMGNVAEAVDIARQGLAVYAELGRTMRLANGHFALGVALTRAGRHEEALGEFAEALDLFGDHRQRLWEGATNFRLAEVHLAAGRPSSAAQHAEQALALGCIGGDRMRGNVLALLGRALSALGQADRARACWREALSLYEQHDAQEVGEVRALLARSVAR
T1 sequence (P25941 whole entry): as above

Turning to `Nc1ncnc2c1ncn2[C@@H]1O[C@H](COP(=O)(O)OP(=O)(O)OP(O)(O)=S)[C@@H](O)[C@H]1O` [ATPγS], the transcription activation result in test [1] was “comparable effect of preincubation with a non-hydrolyzable ATP analogue, ATPγS”; in test [2], “exhibits partial activation in response to non-hydrolysable ATPγS”.
